Molecules are shown by their SMILES.

Test [1] has as its target human A2a adenosine receptor (Homo sapiens (Human), UniProt P29274). Kind of test: A2a binding affinity using radioligand binding, Method (A). As to conditions: Method (A): [3H]SCH58261 filtration binding. The text has this: The A2a receptor affinity binding assay measured the amount of binding of a tritiated ligand with high affinity for the A2a adenosine receptor to membranes made from HEK293 or CHO cells recombinantly expressing the human A2a adenosine receptor, in the presence of varying concentrations of a compound of the invention. The data were generated using either filtration binding or a homogenous scintillation proximity assay (SPA).
Method (A): Measurement of A2a Binding Affinity Using Radioligand Binding
148 μL (5 μg/mL) membranes (Perkin Elmer, Cat. No. RBHA2aM400UA) and 2 μL compounds of the invention to be tested (test compound) were transferred to individual wells of a 96-well polypropylene assay plate and incubated for 15 to 30 min at room temperature. [^3H] SCH58261 ((7-(2-phenylethyl)-5-amino-2-(2-furyl)-pyrazolo-[4,3-e]-1,2,4-triazolo[1,5-c]pyrimidine)) was diluted in assay buffer (50 mM Tris pH 7.4, 10 mM MgCl2, 0.005% Tween20) to a concentration of 4 nM and 50 μL transferred to each well of the assay plate. […] The assay plate was incubated at room temperature for 60 min with agitation. […] Filtering was achieved by aspirating the contents of the assay plate for 5 sec, then washing and aspirating the contents three times with ice-cooled wash buffer (50 mM Tris-HCl pH 7.4, 150 mM NaCl) and allowing the vacuum manifold to dry the plate for […]. The filter plate was incubated for at least 1 h at 55° C. and allowed to dry. The bottom of the filter plate was sealed with backing tape. […] The plate was incubated for at least 20 min, and then the amount of radioactivity remaining in each well was determined using a TopCount® (Perkin Elmer) scintillation counter. After normalization to total and non-specific binding, the percent effect at each compound concentration was calculated. The plot of percent effect versus the log of compound concentration was analyzed electronically using a 4-parameter logistic fit based on the Levenberg-Marquardt algorithm to generate IC50 values.

Test [2] addresses human A2b adenosine receptor (Homo sapiens (Human), UniProt P29275). Kind of test: A2b binding affinity, radioligand filtration binding assay. As to conditions: tritiated proprietary A2b antagonist, HEK293 membranes. As to the method: Measurement of A2b Binding Affinity
The reported affinity of the compounds of the invention for the human A2b adenosine receptor was determined experimentally using a radioligand filtration binding assay. This assay measures the amount of binding of a tritiated proprietary A2b receptor antagonist, in the presence and absence of a compound of the invention, to membranes made from HEK293 cells recombinantly expressing the human A2b adenosine receptor (Perkin Elmer, Cat. No. ES-013-C).
The filter plate was incubated for at least 1 h at 55° C. and allowed to dry. The bottom of the filter plate was then sealed with backing tape. […] The plates were then incubated for at least 20 min, and then the amount of radioactivity remaining in each well was determined using a TopCount® (Perkin Elmer) scintillation counter. After normalization to total and non-specific binding, the percent effect at each compound concentration was calculated. The plot of percent effect versus the log of compound concentration was analyzed electronically using a 4-parameter logistic fit based on the Levenberg-Marquardt algorithm to generate IC50 values.

human A2a adenosine receptor, sequence (P29274 whole entry): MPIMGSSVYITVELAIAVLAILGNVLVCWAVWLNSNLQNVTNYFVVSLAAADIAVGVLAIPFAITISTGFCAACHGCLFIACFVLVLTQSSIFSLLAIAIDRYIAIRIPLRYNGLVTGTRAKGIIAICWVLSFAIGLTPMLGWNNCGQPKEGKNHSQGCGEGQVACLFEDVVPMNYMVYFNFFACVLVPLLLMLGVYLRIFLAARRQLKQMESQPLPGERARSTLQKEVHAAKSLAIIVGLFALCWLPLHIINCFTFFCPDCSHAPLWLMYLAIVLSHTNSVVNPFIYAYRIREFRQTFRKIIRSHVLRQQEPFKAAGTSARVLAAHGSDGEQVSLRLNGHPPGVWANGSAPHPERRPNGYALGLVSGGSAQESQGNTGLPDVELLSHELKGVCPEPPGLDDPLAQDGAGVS
human A2b adenosine receptor, sequence (P29275 whole entry): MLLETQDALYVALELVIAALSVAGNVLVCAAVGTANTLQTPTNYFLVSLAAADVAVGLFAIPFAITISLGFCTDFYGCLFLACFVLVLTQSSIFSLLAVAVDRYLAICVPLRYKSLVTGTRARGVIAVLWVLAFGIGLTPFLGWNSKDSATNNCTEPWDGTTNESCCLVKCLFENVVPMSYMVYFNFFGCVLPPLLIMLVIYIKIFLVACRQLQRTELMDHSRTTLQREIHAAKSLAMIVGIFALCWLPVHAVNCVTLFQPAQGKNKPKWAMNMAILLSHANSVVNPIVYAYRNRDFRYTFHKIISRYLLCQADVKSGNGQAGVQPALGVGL

Regarding `Cc1ccc(-c2nc(N)c3nc(Cc4ccccc4)nn3c2C)cc1F` [Example 3.37], the IC50 in test [1] stood at 1000 nM; in test [2] it was 3710 nM.
On to `Cc1c(-c2cc(F)ccc2Cl)nc(N)c2nc(Cc3ccccc3)nn12` [Example 3.38], for which the half-maximal inhibitory concentration (IC50) was 97.6 nM in test [1] and 85.7 nM in test [2].
Regarding `Cc1c(F)cccc1-c1nc(N)c2nc(Cc3ccccc3)nn2c1C` [Example 3.39], the IC50 in test [1] is 98.5 nM; in test [2], 1020 nM.
Turning to `Cc1c(-c2ccc(F)c(F)c2F)nc(N)c2nc(Cc3ccccc3)nn12` [Example 3.40], the IC50 in test [1] amounted to 280 nM; in test [2] it was 315 nM.
For `Cc1c(-c2cccc(F)c2Cl)nc(N)c2nc(Cc3ccccc3)nn12` [Example 3.41], the IC50 was found to be 289 nM in test [1] and 747 nM in test [2].
Taken in the same sequence, the figures for `Cc1c(-c2ccc(C#N)c(F)c2)nc(N)c2nc(Cc3ccccc3)nn12` [Example 3.42] were 499 nM and 1730 nM.
Taken in the same sequence, the figures for `COc1ccc(F)cc1-c1nc(N)c2nc(Cc3ccccc3)nn2c1C` [Example 3.43] were 611 nM and 2520 nM.
With `Cc1c(-c2ccn(C)n2)nc(N)c2nc(Cc3ccccc3)nn12` [Example 3.46], the IC50 in test [1] stood at 4.4 nM; in test [2] it was 82.6 nM.
Taken in the same sequence, the figures for `Cc1cccnc1Cc1nc2c(N)nc(-c3cc(F)ccc3F)c(C)n2n1` [Example 4.3, 6-(2,5-difluorophenyl)-5-methyl-2-((3-methylpyridin-2-yl)methyl)-[1,2,4]triazolo[1,5-a]pyrazin-8-amine] were 9.9 nM and 47.3 nM.
For the compound `Cc1c(-c2cc(F)ccc2F)nc(N)c2nc(Cc3ccc(F)cn3)nn12` [Example 4.4], the IC50 in test [1] was 22.8 nM; in test [2], 26 nM.
Taken in the same sequence, the figures for `Cc1c(-c2cc(F)ccc2F)nc(N)c2nc(Cc3cccc4c3ncn4CC(F)F)nn12` [Example 4.5] were 23.8 nM and 31.8 nM.
As for `Cc1c(-c2ncco2)nc(N)n2nc(Cc3ccc4c(c3)ncn4CC(F)F)nc12` [Example 4.7], the IC50 stood at 35.3 nM in test [1] and 7.6 nM in test [2].
Consider `Cc1c(-c2cc(F)ccc2F)nc(N)c2nc(Cc3ncccc3F)nn12` [Example 4.8], for which the IC50 was determined as 18.7 nM in test [1] and 9.3 nM in test [2].
Taken in the same sequence, the figures for `Cc1c(-c2ncco2)nc(N)c2nc(Cc3cccc4c3ncn4CC(C)(C)O)nn12` [Example 4.9] were 0.2 nM and 1.2 nM.
In the case of `Cc1c(-c2ncco2)nc(N)c2nc(Cc3cccc4c3ncn4CC(F)F)nn12` [Example 4.10], the IC50 in test [1] came to 0.7 nM; in test [2] it was 6.5 nM.
`Cc1c(-c2ncco2)nc(N)c2nc(Cc3ccc(C(C)(C)O)cn3)nn12` [Example 4.11]: the IC50 in test [1] is 48.2 nM; in test [2] it was 66.5 nM.
Consider `Cc1c(-c2ncco2)nc(N)n2nc(Cc3ccc([C@H]4C[C@@](C)(O)C4)cc3)nc12` [Example 5.2, (1s,3s)-3-(4-((5-amino-8-methyl-7-(oxazol-2-yl)-[1,2,4]triazolo[1,5-c]pyrimidin-2-yl)methyl)phenyl)-1-methylcyclobutanol], for which the values for the IC50 in test [1] and in test [2] were 2.5 nM and 1.6 nM, respectively.
Regarding `Cc1c(-c2ncco2)nc(N)n2nc(Cc3ccc([C@H]4C[C@](C)(O)C4)cc3)nc12` [Example 5.3, (1r,3r)-3-(4-((5-amino-8-methyl-7-(oxazol-2-yl)-[1,2,4]triazolo[1,5-c]pyrimidin-2-yl)methyl)phenyl)-1-methylcyclobutanol], the half-maximal inhibitory concentration (IC50) in test [1] was 12.1 nM; in test [2] it was 3.5 nM.
Regarding `Cc1c(-c2ncco2)nc(N)n2nc(Cc3ccc(C4(O)CCC4)cc3)nc12` [Example 6.3, 1-(4-((5-amino-8-methyl-7-(oxazol-2-yl)-[1,2,4]triazolo[1,5-c]pyrimidin-2-yl)methyl)phenyl)cyclobutanol], the concentration for half-maximal inhibition (IC50) in test [1] turned out to be 17.1 nM; in test [2] it was 10.7 nM.
Turning to `COC1(c2ccc(Cc3nc4c(C)c(-c5ncco5)nc(N)n4n3)cc2)CCC1` [Example 6.4, 2-(4-(1-methoxycyclobutyl)benzyl)-8-methyl-7-(oxazol-2-yl)-[1,2,4]triazolo[1,5-c]pyrimidin-5-amine], the IC50 was 4.9 nM in test [1] and 5.7 nM in test [2].
Taken in the same sequence, the figures for `Cc1c(-c2ncco2)nc(N)n2nc(Cc3ccc(C(C)(C)O)cc3)nc12` [Example 6.5, 2-(4-((5-amino-8-methyl-7-(oxazol-2-yl)-[1,2,4]triazolo[1,5-c]pyrimidin-2-yl)methyl)phenyl)propan-2-ol] were 38.7 nM and 5 nM.
Consider `Cc1c(-c2ncco2)nc(N)n2nc(Cc3cccc(C(C)(C)O)c3)nc12` [Example 6.6, 2-(3-((5-amino-8-methyl-7-(oxazol-2-yl)-[1,2,4]triazolo[1,5-c]pyrimidin-2-yl)methyl)phenyl)propan-2-ol], for which the IC50 is 1.9 nM in test [1] and 243 nM in test [2].
As for `Cc1c(-c2ncco2)nc(N)c2nc(Cc3ccc(C(C)(C)O)cc3)nn12` [Example 6.7, 2-(4-((8-amino-5-methyl-6-(oxazol-2-yl)-[1,2,4]triazolo[1,5-a]pyrazin-2-yl)methyl)phenyl)propan-2-ol], the IC50 in test [1] was 15.7 nM; in test [2], 30.1 nM.
For the compound `Cc1c(-c2ncco2)nc(N)c2nc(Cc3cccc(C(C)(C)O)c3)nn12` [Example 6.8, 2-(3-((8-amino-5-methyl-6-(oxazol-2-yl)-[1,2,4]triazolo[1,5-a]pyrazin-2-yl)methyl)phenyl)propan-2-ol], the IC50 came out at 1.2 nM in test [1] and 330 nM in test [2].
As to `Cc1c(-c2ncco2)nc(N)n2nc(Cc3ccn(C)n3)nc12` [Example 7.6, 8-methyl-2-((1-methyl-1H-pyrazol-3-yl)methyl)-7-(oxazol-2-yl)-[1,2,4]triazolo[1,5-c]pyrimidin-5-amine], the IC50 in test [1] came to 0.5 nM; in test [2], 2.6 nM.
For `Cc1cccnc1Cc1nc2c(N)nc(-c3ncco3)c(C)n2n1` [Example 8.3], the IC50 in test [1] is 1.3 nM; in test [2] it was 29.9 nM.
Take `Cc1c(-c2ncco2)nc(N)c2nc(Cc3ncccc3F)nn12` [Example 8.4]: the IC50 in test [1] is 1.3 nM; in test [2], 18.6 nM.
For `Cc1c(-c2ncco2)nc(N)n2nc(CNCc3ccc(C(F)(F)F)cc3)nc12` [Example 10.2, 8-methyl-7-(oxazol-2-yl)-2-(((4-(trifluoromethyl)benzyl)amino)methyl)-[1,2,4]triazolo[1,5-c]pyrimidin-5-amine], the 50% inhibitory concentration (IC50) stood at 4.5 nM in test [1] and 48.4 nM in test [2].
For the compound `Cc1c(-c2ncco2)nc(N)n2nc(CN3CCc4cccnc43)nc12` [Example 10.3, 2-((2,3-dihydro-1H-pyrrolo[2,3-b]pyridin-1-yl)methyl)-8-methyl-7-(oxazol-2-yl)-[1,2,4]triazolo[1,5-c]pyrimidin-5-amine], the half-maximal inhibitory concentration (IC50) in test [1] turned out to be 0.4 nM; in test [2], 14.5 nM.
As to `Cc1c(-c2ncco2)nc(N)n2nc(CNCc3ccc(C(F)(F)F)cn3)nc12` [Example 10.4, 8-methyl-7-(oxazol-2-yl)-2-((((5-(trifluoromethyl)pyridin-2-yl)methyl)amino)methyl)-[1,2,4]triazolo[1,5-c]pyrimidin-5-amine], the half-inhibitory concentration (IC50) in test [1] was 156 nM; in test [2], 330 nM.
